# From article PMC6479541, “Target Proteins of Phloretin for Its Anti-Inflammatory and Antibacterial Activities Against Propionibacterium acnes-Induced Skin Infection” (Molecules, 2019)
# Columns and labels:
# [1] = molecular target: T1, P. acnes β-ketoacyl acyl carrier protein (ACP) synthase III (KAS III) (Cutibacterium acnes, UniProt P0DW99); assay type: biochemical
# T1 construct: gene fabH; wild-type P. acnes KAS III
# T1 sequence (P0DW99 1-332): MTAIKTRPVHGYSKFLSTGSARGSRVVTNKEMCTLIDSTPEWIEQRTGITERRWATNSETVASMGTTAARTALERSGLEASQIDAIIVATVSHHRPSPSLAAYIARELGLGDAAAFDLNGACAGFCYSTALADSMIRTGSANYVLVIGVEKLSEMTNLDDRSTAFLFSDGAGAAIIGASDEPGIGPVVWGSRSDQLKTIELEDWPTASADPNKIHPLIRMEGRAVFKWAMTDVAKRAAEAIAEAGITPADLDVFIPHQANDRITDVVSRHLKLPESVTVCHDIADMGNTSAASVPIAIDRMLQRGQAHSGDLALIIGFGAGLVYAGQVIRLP
# JNK1 = molecular target: T2, JNK1 (Homo sapiens, UniProt P45983); experiment: tryptophan fluorescence quenching titration with purified protein; assay type: binding
# T2 construct: gene MAPK8; C-terminal truncated form of human JNK1α1 (residues 1–364), C-terminal 6His tag
# T2 sequence (P45983 1-364): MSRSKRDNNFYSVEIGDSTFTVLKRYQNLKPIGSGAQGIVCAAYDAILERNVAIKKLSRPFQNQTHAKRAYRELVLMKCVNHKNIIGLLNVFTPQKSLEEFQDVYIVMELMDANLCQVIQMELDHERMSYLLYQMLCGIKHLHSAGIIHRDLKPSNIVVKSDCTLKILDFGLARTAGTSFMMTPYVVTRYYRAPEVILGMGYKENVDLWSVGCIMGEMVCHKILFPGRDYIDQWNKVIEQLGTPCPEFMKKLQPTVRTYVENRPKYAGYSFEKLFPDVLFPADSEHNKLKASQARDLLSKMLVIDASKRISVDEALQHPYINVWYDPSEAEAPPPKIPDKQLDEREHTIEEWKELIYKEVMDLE
smiles,measurement,setting,value
"O=C(CCc1ccc(O)cc1)c1c(O)cc(O)cc1O [Phloretin, 3-(4-hydroxyphenyl)-1-(2,4,6-trihydroxyphenyl)-1-propanone]",% reduction of product,[1],> 66 % reduction of product
same,Kd,JNK1,11.8 µM
